Reference: article PMC8964499, “An Efficient Approach for the Design and Synthesis of Antimicrobial Peptide-Peptide Nucleic Acid Conjugates” (Frontiers in Chemistry, 2022)
Values joined by “and” are separate entries in the source; they are usually repeats but may differ in a detail not shown here. Equal entries are not always repeated. Non-standard residues stand in square brackets, D forms with d. Residues, ends and D or L forms follow the SMILES beside them. *: point of attachment. X1 = N#Cc1cc(C(=O)*)ccn1; AEEA = NCCOCCOCC(=O)O; Ahx = NCCCCCC(=O)O

Columns and labels:
[1] = system: P. aeruginosa ATCC 27853; settings: disc diffusion (EUCAST), 40 μM per disk, inoculum McFarland 0.5 (~10^8 CFU/ml), 18 h at 37°C; volume per disk corrected by Mw equivalent to 40 ug of LASP-072
Procedure: (§1) According to the EUCAST guidelines ([Eucast, E.C.O.a.S.T., 2021]), the inoculum was standardized in sterile saline to the density of a McFarland 0.50 ± 0.02 standard, corresponding to ∼10^8 CFU/ml of each isolate. The freshly prepared bacterial suspension was evenly inoculated onto agar plates and disks containing 40 μM of peptide-PNA conjugates were applied within 15 min. The diameter of inhibition zones was measured after incubation for 18 h at 37°C. Polymyxin B (40 μM/disk) was employed as the control.
(§2) The selected peptide sequences are known for their antimicrobial activity ([Le et al., 2017]). Therefore, we evaluated the antimicrobial activity of synthesized peptide-PNA conjugates using the Disc Diffusion Assay (DDA) against a panel of MDR Gram-negative bacteria consisting of P. aeruginosa, A. baumannii, K. pneumoniae, E. coli, including the isolates highly polymyxin-resistant A. baumannii 5075R, and A. baumannii 5075D (Figure 4 and Supplementary Table S1). […] During the synthesis of the next set of peptide-PNA conjugates, we switched the direction of the conjugation handles to investigate the impact on the efficiency of conjugation.
Figure S7: The inhibition zone (mm) of all peptides, PNA and peptide-PNA conjugates
against P. aeruginosa ATCC 27853 at a concentration of 40 μM. […]

[2] = system: A. baumannii ATCC 17978; settings: disc diffusion (EUCAST), 40 μM per disk, inoculum McFarland 0.5 (~10^8 CFU/ml), 18 h at 37°C; volume per disk corrected by Mw equivalent to 40 ug of LASP-072
Procedure: as §1
as §2, with “conjugation. […]” for “conjugation.”
Figure S8: The inhibition zone (mm) of all peptides, PNA and peptide-PNA conjugates
against A. baumannii ATCC 17978 at a concentration of 40 μM. […]

[3] = system: Klebsiella pneumoniae ATCC 700721; settings: disc diffusion (EUCAST), 40 μM per disk, inoculum McFarland 0.5 (~10^8 CFU/ml), 18 h at 37°C; volume per disk corrected by Mw equivalent to 40 ug of LASP-072
Procedure: as §1
as §2, with “conjugation. […]” for “conjugation.”
Figure S9: The inhibition zone (mm) of all peptides, PNA and peptide-PNA conjugates
against Klebsiella pneumoniae ATCC 700721 at a concentration of 40 μM.

[4] = system: E. coli DH5α; settings: disc diffusion (EUCAST), 40 μM per disk, inoculum McFarland 0.5 (~10^8 CFU/ml), 18 h at 37°C; volume per disk corrected by Mw equivalent to 40 ug of LASP-072
Procedure: as §1, §2
Figure S10: The inhibition zone (mm) of all peptides, PNA and peptide-PNA conjugates
against E. coli DH5α at a concentration of 40 μM. […]

[5] = system: A. baumannii 5075; settings: 40 μM per disk; for Zone of inhibition diameter, Ab 5075: disc diffusion (EUCAST), inoculum McFarland 0.5 (~10^8 CFU/ml), 18 h at 37°C, volume per disk corrected by Mw equivalent to 40 ug of LASP-072
Procedure: as §1
as §2, with “conjugation. […]” for “conjugation.”
Figure S11: The inhibition zone (mm) of all peptides, PNA and peptide-PNA conjugates
against A. baumannii 5075 at a concentration of 40 μM. […]

[6] = system: A. baumannii 5075R; settings: polymyxin-resistant isolate; disc diffusion (EUCAST), 40 μM per disk, inoculum McFarland 0.5 (~10^8 CFU/ml), 18 h at 37°C; volume per disk corrected by Mw equivalent to 40 ug of LASP-072
Procedure: as §1
as §2, with “conjugation. […]” for “conjugation.”
Figure S12: The inhibition zone (mm) of all peptides, PNA and peptide-PNA conjugates
against A. baumannii 5075R at a concentration of 40 μM.

[7] = system: A. baumannii 5075D; type: cell-based, Acinetobacter baumannii; settings: polymyxin-dependent resistant isolate; disc diffusion (EUCAST), 40 μM per disk, inoculum McFarland 0.5 (~10^8 CFU/ml), 18 h at 37°C; volume per disk corrected by Mw equivalent to 40 ug of LASP-072
Procedure: as §1
(§3) The selected peptide sequences are known for their antimicrobial activity ([Le et al., 2017]). Therefore, we evaluated the antimicrobial activity of synthesized peptide-PNA conjugates using the Disc Diffusion Assay (DDA) against a panel of MDR Gram-negative bacteria consisting of P. aeruginosa, A. baumannii, K. pneumoniae, E. coli, including the isolates highly polymyxin-resistant A. baumannii 5075R, and A. baumannii 5075D (Figure 4 and Supplementary Table S1). […] Therefore, we further synthesized 10-mer PNAs targeting four bacterial essential genes anti-rpoA LASP-095 ([Abushahba et al., 2016]), anti-murA LASP-096 ([Goh et al., 2009]; [Mondhe et al., 2014]), anti-acpP LASP-097 ([Hansen et al., 2016]), and anti-rpoD LASP-119 ([Bai et al., 2012]; [Alajlouni and Seleem, 2013]). During the synthesis of the next set of peptide-PNA conjugates, we switched the direction of the conjugation handles to investigate the impact on the efficiency of conjugation. Here, PNAs were synthesized with an N-terminal CINA moiety (LASP-095, 096, 097 and 119, Table 1) and a polymyxin analogue (LASP-072, Table 1) was synthesized containing an N-terminal cysteine residue (Supplementary Figure S3).
Table S1: Inhibition zone (mm) for peptide, PNA, and peptide-PNA conjugates
Zone of inhibition diameter (mm)
Mw equivalent Pa Ab Kp Ab Ab

[8] = system: panel of MDR Gram-negative bacteria consisting of P. aeruginosa, A. baumannii, K. pneumoniae, E. coli; assay: Disc diffusion assay, statements for the whole panel; type: cell-based; settings: 40 μM per disk, 18 h at 37°C, statement of the text for the whole panel
Procedure: as §1, §3

Compound	Zone of inhibition diameter, Pa ATCC 27853 [1]	Zone of inhibition diameter, Ab ATCC 17978 [2]	Zone of inhibition diameter, Kp ATCC 700721 [3]	Zone of inhibition diameter, E. coli DH5α [4]	Zone of inhibition diameter, Ab 5075 [5]	Zone of inhibition diameter, Ab 5075 R [6]	Zone of inhibition diameter, Ab 5075 D [7]	Bacterial growth in the presence of the conjugate (polymyxin-dependent phenotype) ([5]; disc diffusion, result in words)	Diameter of inhibition zones over the panel of bacteria [8]
N#Cc1cc(C(=O)NCCCC[C@H](NC(=O)COCCOCCNC(=O)[C@H](CCCNC(=N)N)NC(=O)CCCCCNC(=O)[C@H](CCCNC(=N)N)NC(=O)[C@H](CCCNC(=N)N)NC(=O)CCCCCNC(=O)[C@H](CCCNC(=N)N)NC(=O)[C@H](CCCNC(=N)N)NC(=O)CCCCCNC(=O)[C@H](CCCNC(=N)N)NC(=O)[C@H](CCCNC(=N)N)NC(=O)CCCCCNC(=O)[C@@H](N)CCCNC(=N)N)C(N)=O)ccn1 [LASP-054] (H-R[Ahx]RR[Ahx]RR[Ahx]RR[Ahx]R[AEEA]K(X1)-NH2)	0 mm	9 mm	8 mm	9 mm	8 mm	8 mm	9 mm	–	–
CINA-PEG-Gly-Lys-Pro-Arg-Pro-Tyr-Ser-Pro-Arg-Pro-Thr-Ser-His-Pro-Arg-Pro-Ile-Arg-Arg-NH2 [LASP-077, CINA antimicrobial peptide drosocin containing 19 amino acids]	0 mm	0 mm	0 mm	0 mm	0 mm	0 mm	0 mm	–	–
CINA-PEG-Gly-Lys-Pro-Arg-Pro-Tyr-Ser-Pro-Arg-Pro-Thr-Ser-His-Pro-Arg-Pro-Ile-Arg-Arg-NH2 [LASP-084, Conjugate of drosocin peptide LASP-077 and PNA LASP-050]	0 mm	0 mm	0 mm	8 mm	–	0 mm	7 mm and 8 mm	greater bacterial growth	–
CINA-PEG-OctGly-Dab-Thr-Dab-Dab ^b -Dab-D-Phe-Leu-Dab-Dab-Thr ^b (lariat or depsi) [LASP-026, Polymyxin analogue with a CINA moiety]	14 mm	13 mm	13 mm	15 mm	13 mm	11 mm	9 mm	–	–
CINA-PEG-Val-Cys ^c -Lys-Arg-trp-Lys-Lys-Trp-Lys-Arg-Lys-Trp-Lys-Lys-Trp-Cys ^c -Val-NH2 (sidechain bridge or staple) [LASP-086, Thioether cross-linked cathelicidin-PNA conjugate of LASP-078 and LASP-050]	0 mm	0 mm	0 mm	0 mm	0 mm	0 mm	0 mm	–	No zone of bacterial growth inhibition
CINA-PEG-Val-Cys ^d -Lys-Arg-trp-Lys-Lys-Trp-Lys-Arg-Lys-Trp-Lys-Lys-Trp-Cys ^d -Val-NH2 (disulfide) [LASP-088]	0 mm	0 mm	0 mm	8 mm	7 mm and 8 mm	0 mm	–	–	–
Cys-PEG-OctGly-Dab-Thr-Dab-Dab ^b -Dab-D-Phe-Leu-Dab-Dab-Thr ^b (lariat or depsi) [LASP-130, Conjugate of polymyxin analogue LASP-072 and anti-rpoA PNA LASP-095]	9 mm	9 mm	9 mm	12 mm	10 mm	7 mm	0 mm	–	11–14 mm
H-Arg-Acp-Arg-Arg-Acp-Arg-Arg-Acp-Arg-Arg-Acp-Arg-PEG-Lys (CINA)-NH2 [LASP-058, Conjugate of RXR peptide LASP-054 and PNA LASP-050 by Cys-CINA linkage]	0 mm	0 mm	0 mm	0 mm	0 mm	0 mm	0 mm	–	No zone of bacterial growth inhibition
